EP0749962B1, “6-substituted-1,2,3,4-tetrahydro-9H-carbazoles and 7-substituted-10H-cyclohepta(7,6-B)indoles” (ELI LILLY AND COMPANY, priority 1995, dated 1996)
Counter-ions that a name gives are not always drawn. Like-named read-outs stand apart in the source and are kept apart here.

Tests used:
[1] = biological target: T1, 5-HT1Dα (Homo sapiens, UniProt P28221); assay: [3H]5-HT radioligand binding to the cloned 5-HT1Dα receptor
T1 construct: expressed in transfected cells

[2] = biological target: 5-HT1Dβ (Homo sapiens, UniProt P28222); assay: [3H]5-HT radioligand binding to the cloned 5-HT1Dβ receptor
Chain of 5-HT1Dβ (P28222 whole entry): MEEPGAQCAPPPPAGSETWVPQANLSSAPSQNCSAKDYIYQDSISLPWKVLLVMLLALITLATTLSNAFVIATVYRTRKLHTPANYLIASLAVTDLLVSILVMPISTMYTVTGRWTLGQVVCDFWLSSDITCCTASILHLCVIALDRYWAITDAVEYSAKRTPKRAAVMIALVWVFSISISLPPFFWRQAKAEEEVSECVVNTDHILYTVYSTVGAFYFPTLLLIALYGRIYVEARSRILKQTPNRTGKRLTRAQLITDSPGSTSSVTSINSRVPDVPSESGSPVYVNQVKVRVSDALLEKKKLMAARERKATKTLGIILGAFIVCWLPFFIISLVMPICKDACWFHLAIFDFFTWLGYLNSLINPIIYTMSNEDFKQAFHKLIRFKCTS

[3] = system: neuronal protein extravasation; assay: Neuronal (dural) protein extravasation after electrical stimulation of the trigeminal ganglion; format: in vivo, Harlan Sprague-Dawley rats or guinea pigs; settings: 10 minutes before trigeminal ganglion stimulation, ID50 approximated from dose-response curve, species of the table not stated (rats or guinea pigs)
Description: Harlan Sprague-Dawley rats (225-325 g) or guinea pigs from Charles River Laboratories (225-325 g) were anesthetized with sodium pentobarbital intraperitoneally (65 mg/kg or 45 mg/kg respectively) and placed in a stereotaxic frame (David Kopf Instruments) with the incisor bar set at -3.5 mm for rats or -4.0 mm for guinea pigs. Following a midline sagital scalp incision, two pairs of bilateral holes were drilled through the skull (6 mm posteriorly, 2.0 and 4.0 mm laterally in rats; 4 mm posteriorly and 3.2 and 5.2 mm laterally in guinea pigs, all coordinates referenced to bregma). Pairs of stainless steel stimulating electrodes (Rhodes Medical Systems, Inc.) were lowered through the holes in both hemispheres to a depth of 9 mm (rats) or 10.5 mm (guinea pigs) from dura.
The femoral vein was exposed and a dose of the test compound was injected intravenously (1 mL/kg). Approximately 7 minutes later, a 50 mg/kg dose of Evans Blue, a fluorescent dye, was also injected intravenously. The Evans Blue complexed with proteins in the blood and functioned as a marker for protein extravasation. […]
A fluorescence microscope (Zeiss) equipped with a grating monochromator and a spectrophotometer was used to quantify the amount of Evans Blue dye in each sample. An excitation wavelength of approximately 535 nm was utilized and the emission intensity at 600 nm was determined. […] This facilitated the computer-controlled movement of the stage with fluorescence measurements at 25 points (500 µm steps) on each dural sample. The mean and standard deviation of the measurements was determined by the computer.
The extravasation induced by the electrical stimulation of the trigeminal ganglion was an ipsilateral effect (i.e. occurs only on the side of the dura in which the trigeminal ganglion was stimulated). […] The ratio of the amount of extravasation in the dura from the stimulated side compared to the unstimulated side dura was calculated. […]

[4] = biological target: T2, 5-HT1E (Homo sapiens, UniProt P28566); assay: [3H]5-HT radioligand binding to the cloned 5-HT1E receptor
T2 construct: expressed in transfected cells
T2 sequence (P28566 whole entry): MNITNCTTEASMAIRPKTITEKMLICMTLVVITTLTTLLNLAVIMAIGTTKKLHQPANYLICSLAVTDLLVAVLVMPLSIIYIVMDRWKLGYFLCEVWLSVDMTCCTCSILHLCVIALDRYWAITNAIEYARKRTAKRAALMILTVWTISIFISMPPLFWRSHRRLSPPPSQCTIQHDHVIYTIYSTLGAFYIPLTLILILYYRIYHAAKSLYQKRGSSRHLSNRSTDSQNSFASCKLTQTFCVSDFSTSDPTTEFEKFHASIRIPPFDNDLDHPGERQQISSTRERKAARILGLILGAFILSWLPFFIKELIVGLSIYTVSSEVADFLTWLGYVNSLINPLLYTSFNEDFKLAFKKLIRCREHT

[5] = biological target: T3, 5-HT1F receptor (Homo sapiens, UniProt P30939); assay: [3H]5-HT radioligand binding to the cloned 5-HT1F receptor (membranes of transfected Ltk- cells)
T3 construct: expressed in transfected cells; host or cells: Ltk- cells (mouse fibroblasts)
T3 sequence (P30939 1-366): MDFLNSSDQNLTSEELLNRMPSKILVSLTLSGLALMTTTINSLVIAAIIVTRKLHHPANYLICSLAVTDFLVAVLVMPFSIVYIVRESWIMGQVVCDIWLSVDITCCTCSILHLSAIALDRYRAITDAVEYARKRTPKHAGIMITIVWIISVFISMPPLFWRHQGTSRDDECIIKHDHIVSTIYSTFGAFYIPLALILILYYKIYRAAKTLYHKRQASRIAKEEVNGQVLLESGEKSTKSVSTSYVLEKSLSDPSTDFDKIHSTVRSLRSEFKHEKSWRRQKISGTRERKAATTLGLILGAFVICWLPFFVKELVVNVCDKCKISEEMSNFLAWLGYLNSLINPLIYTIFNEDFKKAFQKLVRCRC
Description: Membrane Preparation: Membranes were prepared from transfected Ltk- cells which were grown to 100% confluency. The cells were washed twice with phosphate-buffered saline, scraped from the culture dishes into 5 mL of ice-cold phosphate-buffered saline, and centrifuged at 200 x g for 5 minutes at 4°C. The pellet was resuspended in 2.5 mL of ice-cold Tris buffer (20 mM Tris HCl, pH=7.4 at 23°C, 5 mM EDTA) and homogenized with a Wheaton tissue grinder. The lysate was subsequently centrifuged at 200 x g for 5 minutes at 4°C to pellet large fragments which were discarded. The supernatant was collected and centrifuged at 40,000 x g for 20 minutes at 4°C. The pellet resulting from this centrifugation was washed once in ice-cold Tris wash buffer and resuspended in a final buffer containing 50 mM Tris HCl and 0.5 mM EDTA, pH=7.4 at 23°C. Membrane preparations were kept on ice and utilized within two hours for the radioligand binding assays.
Saturation studies were conducted using [^3H]5-HT at 12 different concentrations ranging from 0.5 nM to 100 nM. […] The binding profile of drugs in competition experiments was accomplished using 10-12 concentrations of compound. Incubation times were 30 minutes for both saturation and displacement studies based upon initial investigations which determined equilibrium binding conditions. Nonspecific binding was defined in the presence of 10 µM 5-HT. Binding was initiated by the addition of 50 µL membrane homogenates (10-20 µg). The reaction was terminated by rapid filtration through presoaked (0.5% poylethyleneimine) filters using 48R Cell Brandel Harvester (Gaithersburg, MD). Subsequently, filters were washed for 5 seconds with ice cold buffer (50 mM Tris HCl, pH=7.4 at 4°C), dried and placed into vials containing 2.5 mL Readi-Safe (Beckman, Fullerton, CA) and radioactivity was measured using a Beckman LS 5000TA liquid scintillation counter. The efficiency of counting of [^3H]5-HT averaged between 45-50%. Binding data was analyzed by computer-assisted nonlinear regression analysis (Accufit and Accucomp, Lunden Software, Chagrin Falls, OH).

[6] = cloned receptor, [3H]5-HT displacement, 37°C

T1 sequence (P28221 whole entry): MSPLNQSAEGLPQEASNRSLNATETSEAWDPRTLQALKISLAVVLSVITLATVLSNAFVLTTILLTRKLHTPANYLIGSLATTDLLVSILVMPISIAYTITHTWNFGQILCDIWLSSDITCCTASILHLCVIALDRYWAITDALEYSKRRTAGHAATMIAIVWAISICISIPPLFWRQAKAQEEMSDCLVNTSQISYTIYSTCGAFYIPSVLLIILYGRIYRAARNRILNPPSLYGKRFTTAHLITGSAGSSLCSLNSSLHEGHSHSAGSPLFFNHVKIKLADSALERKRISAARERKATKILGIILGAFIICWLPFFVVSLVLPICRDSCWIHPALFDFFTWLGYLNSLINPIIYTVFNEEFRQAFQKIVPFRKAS

SMILES | Ki [1] | Ki [2] | Inhibition of Protein Extravasation i.v. ID50 [3] | Ki [4, 6] | Ki [5, 6] | Ki [1, 6] | Ki [2, 6] | Ki [4] | Ki [5]
CN(C)C1CCc2[nH]c3ccc(O)cc3c2C1 (stereo not shown) [Compound V, 6-hydroxy-3-dimethylamino-1,2,3,4-tetrahydrocarbazole] | 791 nM | 1680 nM | 8.7e-09 mmol/kg | 73.6 nM | 10.3 nM | – | – | – | –
Cn1cc(CCN2CCC(c3c[nH]c4ccc(F)cc34)CC2)cn1 [Compound II, 5-fluoro-3-<1-<2-<1-methyl-1H-pyrazol-4-yl>ethyl>-4-piperidinyl>-1H-indole hydrochloride] | – | – | 8.6e-10 mmol/kg | 50.3 nM | 2.5 nM | 21.7 nM | 53.6 nM | – | –
CCN(CC)C1CCc2cccc(Cl)c2C1 (stereo not shown) [Compound IV, 8-chloro-2-diethylamino-1,2,3,4-tetrahydronaphthalene hydrochloride] | 13.5 nM | 145 nM | – | – | – | – | – | 813 nM | 129 nM
O=C(O)C(=O)O.Oc1ccc2[nH]cc(C3CCNCC3)c2c1 [Compound III, 5-hydroxy-3-(4-piperidinyl)-1H-indole oxalate] | 163 nM | 196 nM | 8.9e-09 mmol/kg | – | – | – | – | 3.9 nM | 22 nM
